Data published in PubChem BioAssay (NCI).
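Where inhibition never reached the appropriate level, the endpoint shown equals the highest concentration tested. Otherwise, values were interpolated linearly from a five-concentration, 48-hour dose response in 96-well plates. GI50 = concentration required for 50% inhibition of growth. Definition used: TGI = concentration required for complete inhibition of growth.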

Key:
Experiment in all cases: NCI-60 cell line screen, 48 h
CAKI-1 renal = test system: CAKI-1 renal
PC-3 prostate = test system: PC-3 prostate
SF-268 CNS = test system: SF-268 CNS
UO-31 renal = test system: UO-31 renal
OVCAR-8 ovarian = test system: OVCAR-8 ovarian
HS 578T breast = test system: HS 578T breast
A549 NSCLC = test system: A549 NSCLC
MALME-3M melanoma = test system: MALME-3M melanoma
HCT-116 colon = test system: HCT-116 colon
BT-549 breast = test system: BT-549 breast
OVCAR-3 ovarian = test system: OVCAR-3 ovarian
NCI-H23 lung = test system: NCI-H23 lung
OVCAR-5 ovarian = test system: OVCAR-5 ovarian
OVCAR-4 ovarian = test system: OVCAR-4 ovarian
TK-10 renal = test system: TK-10 renal
A498 renal = test system: A498 renal
RXF 393 renal = test system: RXF 393 renal
UACC-257 melanoma = test system: UACC-257 melanoma
DU-145 prostate = test system: DU-145 prostate
ACHN renal = test system: ACHN renal
K-562 leukemia = test system: K-562 leukemia
IGROV1 ovarian = test system: IGROV1 ovarian
M14 melanoma = test system: M14 melanoma
UACC-62 melanoma = test system: UACC-62 melanoma
CCRF-CEM leukemia = test system: CCRF-CEM leukemia
RPMI-8226 leukemia = test system: RPMI-8226 leukemia
MDA-MB-231 breast = test system: MDA-MB-231 breast
SK-MEL-2 melanoma = test system: SK-MEL-2 melanoma
NCI-H522 lung = test system: NCI-H522 lung
MDA-MB-435 = test system: MDA-MB-435
HT29 colon = test system: HT29 colon
U251 CNS = test system: U251 CNS
LOX IMVI melanoma = test system: LOX IMVI melanoma
SNB-19 CNS = test system: SNB-19 CNS
SW-620 colon = test system: SW-620 colon
SF-295 CNS = test system: SF-295 CNS
HL-60(TB) leukemia = test system: HL-60(TB) leukemia
SK-OV-3 ovarian = test system: SK-OV-3 ovarian
SK-MEL-5 melanoma = test system: SK-MEL-5 melanoma
SN12C renal = test system: SN12C renal
NCI-H226 lung = test system: NCI-H226 lung
HOP-62 NSCLC = test system: HOP-62 NSCLC
786-0 renal = test system: 786-0 renal
NCI/ADR-RES ovarian = test system: NCI/ADR-RES ovarian
KM12 colon = test system: KM12 colon
SK-MEL-28 melanoma = test system: SK-MEL-28 melanoma
HCT-15 colon = test system: HCT-15 colon
NCI-H460 lung = test system: NCI-H460 lung
COLO 205 colon = test system: COLO 205 colon
EKVX NSCLC = test system: EKVX NSCLC
MCF7 breast = test system: MCF7 breast
SNB-75 CNS = test system: SNB-75 CNS
HOP-92 NSCLC = test system: HOP-92 NSCLC
T-47D breast = test system: T-47D breast
SF-539 CNS = test system: SF-539 CNS
MOLT-4 leukemia = test system: MOLT-4 leukemia

In the case of `CC1CC(N2CCOCC2)=Nc2ccccc2N1Cc1ccccc1` (configuration not stated), the TGI (CAKI-1 renal) was greater than 100 µM, the TGI (PC-3 prostate) was greater than 100 µM and the TGI (SF-268 CNS) was greater than 100 µM. The TGI (UO-31 renal) was greater than 100 µM, the TGI (OVCAR-8 ovarian) was greater than 100 µM and the TGI (HS 578T breast) was greater than 100 µM. The TGI (A549 NSCLC) was greater than 100 µM, the TGI (MALME-3M melanoma) was 63.1 µM and the TGI (HCT-116 colon) was greater than 100 µM. For the same compound, the TGI (BT-549 breast) was greater than 100 µM, the TGI (OVCAR-3 ovarian) was greater than 100 µM and the TGI (NCI-H23 lung) was greater than 100 µM. It also gave a TGI (OVCAR-5 ovarian) greater than 100 µM, a TGI (OVCAR-4 ovarian) greater than 100 µM and a TGI (TK-10 renal) greater than 100 µM. It also gave a TGI (A498 renal) of 52.3 µM, a TGI (RXF 393 renal) of 63.4 µM and a TGI (UACC-257 melanoma) greater than 100 µM. For the same compound, the TGI (DU-145 prostate) was greater than 100 µM, the TGI (ACHN renal) was greater than 100 µM and the TGI (K-562 leukemia) was greater than 100 µM. For the same compound, the TGI (IGROV1 ovarian) was greater than 100 µM, the TGI (M14 melanoma) was greater than 100 µM and the TGI (UACC-62 melanoma) was greater than 100 µM. It also gave a TGI (CCRF-CEM leukemia) greater than 100 µM, a TGI (RPMI-8226 leukemia) greater than 100 µM and a TGI (MDA-MB-231 breast) greater than 100 µM. For the same compound, the TGI (SK-MEL-2 melanoma) was greater than 100 µM, the TGI (NCI-H522 lung) was greater than 100 µM and the TGI (MDA-MB-435) was greater than 100 µM. The TGI (HT29 colon) was greater than 100 µM, the TGI (U251 CNS) was greater than 100 µM and the TGI (LOX IMVI melanoma) was greater than 100 µM. For the same compound, the TGI (SNB-19 CNS) was greater than 100 µM, the TGI (SW-620 colon) was greater than 100 µM and the TGI (SF-295 CNS) was greater than 100 µM. The TGI (HL-60(TB) leukemia) was greater than 100 µM, the TGI (SK-OV-3 ovarian) was greater than 100 µM and the TGI (SK-MEL-5 melanoma) was greater than 100 µM. It also gave a TGI (SN12C renal) greater than 100 µM, a TGI (NCI-H226 lung) greater than 100 µM and a TGI (HOP-62 NSCLC) greater than 100 µM. It also gave a TGI (786-0 renal) greater than 100 µM, a TGI (NCI/ADR-RES ovarian) greater than 100 µM and a TGI (KM12 colon) greater than 100 µM. The TGI (SK-MEL-28 melanoma) was greater than 100 µM, the TGI (HCT-15 colon) was greater than 100 µM and the TGI (NCI-H460 lung) was greater than 100 µM. For the same compound, the TGI (COLO 205 colon) was greater than 100 µM and the TGI (EKVX NSCLC) was greater than 100 µM.
`CC1CCC2C(CN(CC3=C(C(F)(F)F)OC4OC5(C)CCC6C(C)CCC3C46OO5)CC3=C(C(F)(F)F)OC4OC5(C)CCC6C(C)CCC3C46OO5)=C(C(F)(F)F)OC3OC4(C)CCC1C32OO4` (configuration not stated) was tested, and the GI50 (CAKI-1 renal) was 5.87 µM, the TGI (CAKI-1 renal) was 18.4 µM and the GI50 (PC-3 prostate) was 3.99 µM. For the same compound, the TGI (PC-3 prostate) was 20.1 µM, the GI50 (SF-268 CNS) was 18.7 µM and the TGI (SF-268 CNS) was 48.4 µM. It also gave a GI50 (MCF7 breast) of 20.9 µM, a TGI (MCF7 breast) of 59.9 µM and a GI50 (UO-31 renal) of 29.1 µM. For the same compound, the TGI (UO-31 renal) was greater than 100 µM, the GI50 (OVCAR-8 ovarian) was 14.1 µM and the TGI (OVCAR-8 ovarian) was 76.4 µM. For the same compound, the GI50 (HS 578T breast) was 17.9 µM, the TGI (HS 578T breast) was 61.4 µM and the GI50 (A549 NSCLC) was 12.1 µM. The TGI (A549 NSCLC) was 66.3 µM, the GI50 (MALME-3M melanoma) was 6.73 µM and the TGI (MALME-3M melanoma) was 23 µM. The GI50 (HCT-116 colon) was 11.6 µM, the TGI (HCT-116 colon) was 24.5 µM and the GI50 (SNB-75 CNS) was 81.6 µM. It also gave a TGI (SNB-75 CNS) greater than 100 µM, a GI50 (BT-549 breast) of 13.1 µM and a TGI (BT-549 breast) of 34.1 µM. For the same compound, the GI50 (NCI-H23 lung) was 6.04 µM, the TGI (NCI-H23 lung) was 19.7 µM and the GI50 (OVCAR-5 ovarian) was 15.3 µM. For the same compound, the TGI (OVCAR-5 ovarian) was greater than 100 µM, the GI50 (HOP-92 NSCLC) was 6.3 µM and the TGI (HOP-92 NSCLC) was 33.4 µM. The GI50 (OVCAR-4 ovarian) was 10.2 µM, the TGI (OVCAR-4 ovarian) was 33.4 µM and the GI50 (TK-10 renal) was 15.4 µM. It also gave a TGI (TK-10 renal) of 30 µM, a GI50 (RXF 393 renal) of 2.45 µM and a TGI (RXF 393 renal) of 22.4 µM. It also gave a GI50 (UACC-257 melanoma) of 27.1 µM, a TGI (UACC-257 melanoma) greater than 100 µM and a GI50 (ACHN renal) of 1.81 µM. The TGI (ACHN renal) was 3.49 µM, the GI50 (K-562 leukemia) was 5.58 µM and the TGI (K-562 leukemia) was 22.1 µM. For the same compound, the GI50 (M14 melanoma) was 22.2 µM, the TGI (M14 melanoma) was 59.7 µM and the GI50 (T-47D breast) was 3.97 µM. The TGI (T-47D breast) was 27.2 µM, the GI50 (CCRF-CEM leukemia) was 4.8 µM and the TGI (CCRF-CEM leukemia) was 28 µM. It also gave a GI50 (MDA-MB-231 breast) of 13.4 µM, a TGI (MDA-MB-231 breast) of 36.6 µM and a GI50 (SK-MEL-2 melanoma) of 36.6 µM. It also gave a TGI (SK-MEL-2 melanoma) greater than 100 µM, a GI50 (SF-539 CNS) of 11.9 µM and a TGI (SF-539 CNS) of 38.6 µM. The GI50 (NCI-H522 lung) was 16.2 µM, the TGI (NCI-H522 lung) was 42.2 µM and the GI50 (MDA-MB-435) was 4.54 µM. For the same compound, the TGI (MDA-MB-435) was 17.3 µM, the GI50 (HT29 colon) was 25.1 µM and the TGI (HT29 colon) was greater than 100 µM. The GI50 (U251 CNS) was 5.12 µM, the TGI (U251 CNS) was 19.2 µM and the GI50 (SNB-19 CNS) was 30.8 µM. For the same compound, the TGI (SNB-19 CNS) was greater than 100 µM, the GI50 (MOLT-4 leukemia) was 9.11 µM and the TGI (MOLT-4 leukemia) was 39.9 µM. For the same compound, the GI50 (HL-60(TB) leukemia) was 3.12 µM, the TGI (HL-60(TB) leukemia) was 10.7 µM and the GI50 (SK-OV-3 ovarian) was 35.2 µM. For the same compound, the TGI (SK-OV-3 ovarian) was greater than 100 µM, the GI50 (SN12C renal) was 18.7 µM and the TGI (SN12C renal) was 48.9 µM. It also gave a GI50 (NCI-H226 lung) of 19.4 µM, a TGI (NCI-H226 lung) of 57.8 µM and a GI50 (HOP-62 NSCLC) of 28.3 µM. For the same compound, the TGI (HOP-62 NSCLC) was 71.9 µM, the GI50 (786-0 renal) was 8.48 µM and the TGI (786-0 renal) was 21.9 µM. It also gave a GI50 (NCI/ADR-RES ovarian) of 26.8 µM, a TGI (NCI/ADR-RES ovarian) of 73.2 µM and a GI50 (KM12 colon) of 3.72 µM. It also gave a TGI (KM12 colon) of 10.1 µM, a GI50 (SK-MEL-28 melanoma) of 30.1 µM and a TGI (SK-MEL-28 melanoma) greater than 100 µM. The GI50 (HCT-15 colon) was 10 µM, the TGI (HCT-15 colon) was 25.7 µM and the GI50 (NCI-H460 lung) was 12.9 µM. For the same compound, the TGI (NCI-H460 lung) was 30 µM, the GI50 (COLO 205 colon) was 7.64 µM and the TGI (COLO 205 colon) was 28.6 µM. For the same compound, the GI50 (EKVX NSCLC) was 19.5 µM and the TGI (EKVX NSCLC) was 49.2 µM.
